What all share (assay): DTP human tumour cell line panel, 48 h
Assay [1] deals with SW-620 colon.
The subject of assay [2] is ACHN renal.
Assay [3] deals with OVCAR-3 ovarian.
Assay [4] relates to CAKI-1 renal.
Assay [5] has as its system MDA-N.
Assay [6] has as its system HCT-15 colon.
The test system of assay [7] is MCF7 breast.
Assay [8] concerns UACC-62 melanoma.

This note sets out measurements from PubChem BioAssay (NCI).

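Cells were grown in 96-well plates and exposed to each compound for 48 hours at five concentrations; endpoints were interpolated linearly between bracketing concentrations, or set to the highest concentration if not reached. GI50 = concentration required for 50% inhibition of growth. TGI is the concentration that stops growth completely.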 Bounds are passed on as bounds.

Consider `c1ccc2[nH]c3[nH]c4[nH]c5ccccc5[nH]c4[nH]c3[nH]c2c1`, for which the TGI in assay [1], in assay [2], in assay [3], in assay [4], in assay [5] and in assay [6] was above 100 µM throughout. Moreover, the TGI in assay [7] and in assay [8] was above 100 µM in each case.

`Cn1cc2c(=O)n3ncn(-c4ccc(Br)cc4)c3nc2n1`: the TGI in assay [1], in assay [2], in assay [3], in assay [4], in assay [5] and in assay [6] was above 100 µM throughout. Moreover, the total growth inhibition concentration (TGI) in assay [7] and in assay [8] was above 100 µM in each case.

As for `CC(=O)NCC1(c2ccccc2)CCN(CC2COc3ccccc3O2)CC1` (centres undefined), the total growth inhibition concentration (TGI) in assay [1], in assay [2], in assay [3], in assay [4], in assay [5] and in assay [6] was above 100 µM each time. In addition, the TGI in assay [7] and in assay [8] was above 100 µM each time.

Take `CC1(C)C=C(/C=N/Nc2ccc(Br)cc2)C(C#N)=C(O)C1(C#N)C#N`: the TGI in assay [1] is above 100 µM; in assay [2] it was above 100 µM; in assay [3], above 100 µM; in assay [4], 95.4 µM; in assay [5] it was above 100 µM; in assay [7] it was above 100 µM. Moreover, in assay [8], the TGI was above 100 µM.

For `C[C@@H]1C[C@@H](O)[C@@]2(O)C13CC(=O)OC(C3)[C@@H](C)[C@@]2(C)CO` (some centres undefined), the TGI in assay [1], in assay [2], in assay [3], in assay [5], in assay [6] and in assay [7] was above 100 µM in each case. The same molecule returned a concentration for total growth inhibition (TGI) in assay [8] above 100 µM.

In the case of `COc1cc(C)cc2c1C(=O)C(Br)=CC2=O`, the TGI in assay [1] is 3.62 µM; in assay [2], 6.96 µM; in assay [3], 11.7 µM; in assay [4], 3.18 µM; in assay [5] it was 8.16 µM; in assay [6], 40.6 µM. Moreover, the TGI in assay [7] came out at 21.6 µM; in assay [8] it was 23.3 µM.

Turning to `C=C(C)[C@@H]1CC[C@@H](C)[C@](O)([C@@H]2C[C@@H]([C@H](COC(=O)c3ccccc3)OC(=O)c3ccccc3)OC2=O)C1`, the TGI in assay [1], in assay [2], in assay [3], in assay [4], in assay [5] and in assay [6] was above 100 µM in each case. Besides, the TGI in assay [7] and in assay [8] was above 100 µM each time.

Turning to `COc1ccc(C2CC(=O)Oc3ccccc3O2)cc1` (centres undefined), the TGI in assay [1], in assay [2], in assay [3], in assay [5], in assay [6] and in assay [7] was above 100 µM throughout. Besides, in assay [8], the TGI was above 100 µM.

Turning to `COc1ccc(-c2c3c(n(C4OC(CO)C(O)C(O)C4O)c(=S)c2C#N)CC(C)(C)CC3=O)cc1` (centres undefined), the TGI in assay [2], in assay [3], in assay [4], in assay [5], in assay [6] and in assay [7] was above 100 µM in each case. Besides, in assay [8], the TGI is above 100 µM.

For the molecule `CCCCCC(=O)OCC(=O)[C@H]1[C@H](C)C[C@H]2[C@@H]3C[C@H](F)C4=C/C(=N/OC(=O)c5cccc6c(=O)c7ccccc7[nH]c56)C=C[C@]4(C)[C@H]3[C@@H](O)C[C@@]21C`, the TGI was above 100 µM in assay [1]; above 100 µM in assay [2]; 65.5 µM in assay [3]; above 100 µM in assay [4]; 76.8 µM in assay [5]; above 100 µM in assay [6]. Further, the TGI came to 54.9 µM in assay [7] and 32 µM in assay [8].

Take `COC(=O)C(/C(=N/N)C(=O)Nc1cc(Cl)c(Cl)cc1Cl)c1nc2ccc(Cl)cc2[nH]c1=O` (centres undefined): the TGI in assay [1], in assay [2], in assay [3], in assay [4], in assay [5] and in assay [6] was above 100 µM each time. Besides, the TGI in assay [7] and in assay [8] was above 100 µM throughout.

Take `C=CCNC(=O)/C(Cc1cc(Br)c(OC)c(Br)c1O)=N\O`: the TGI in assay [1] is 26.4 µM; in assay [2], above 100 µM; in assay [3], 10.7 µM; in assay [4] it was 33.7 µM; in assay [5], 1.07 µM; in assay [6], 21.7 µM. In addition, the figures for the TGI in assay [7] and in assay [8] were above 100 µM and 34.8 µM, respectively.

`CS(=O)(=O)c1[nH]nc2[nH]c(=O)[nH]c(=O)c12`: the TGI in assay [1], in assay [2], in assay [3], in assay [4], in assay [5] and in assay [6] was above 10 µM throughout. The TGI in assay [7] and in assay [8] was above 10 µM each time.

With `CC1(C)CCCCCCCCCC(C)(CCCO)C1=O` (centres undefined), the TGI in assay [1] came out at 34.1 µM; in assay [2], 31.7 µM; in assay [3], 34.1 µM; in assay [4] it was 31.6 µM; in assay [5] it was 30 µM; in assay [6], 31.8 µM. In addition, the TGI worked out at 31.1 µM in assay [7] and 32.4 µM in assay [8].

As to `COc1ccc2c(c1)N(C(C)=O)CN1C(=O)CCC21` (centres undefined), the TGI in assay [1], in assay [2], in assay [3], in assay [4], in assay [5] and in assay [6] was above 100 µM throughout. Also, the total growth inhibition concentration (TGI) in assay [7] and in assay [8] was above 100 µM in each case.

`O=c1oc2cc(O)ccc2c(O)c1C(c1ccccn1)c1c(O)c2ccc(O)cc2oc1=O`: the TGI in assay [1], in assay [2], in assay [3], in assay [4], in assay [5] and in assay [6] was above 100 µM in each case. In addition, the TGI in assay [7] and in assay [8] was above 100 µM in each case.

For `COc1ccc(Nc2nc(N)c(C(=O)c3ccc(OC)cc3)s2)cc1`, the TGI was above 37.5 µM in assay [1]; 2.1 µM in assay [3]; above 48.6 µM in assay [4]; above 100 µM in assay [6]; above 100 µM in assay [7]; above 100 µM in assay [8].

As for `CN(C)c1ccc(/C=C2\N=C(N/N=C/c3ccccc3)NC2=O)cc1`, the TGI in assay [1], in assay [2], in assay [3], in assay [4], in assay [5] and in assay [6] was above 100 µM throughout. Further, the TGI in assay [7] and in assay [8] was above 100 µM throughout.

`O=c1oc2ccccc2cc1-c1nnc(-c2ccccc2)s1`: the total growth inhibition concentration (TGI) in assay [1] is above 100 µM; in assay [2], above 100 µM; in assay [3], above 58.5 µM; in assay [4], above 100 µM; in assay [5], above 78.1 µM; in assay [6], above 100 µM. Also, the TGI in assay [7] and in assay [8] was above 100 µM in each case.

As to `CC(=O)OCC1OC(n2c3c(c(-c4ccc(Cl)cc4)c(C#N)c2=S)C(=O)CC(C)(C)C3)C(OC(C)=O)C(OC(C)=O)C1OC(C)=O` (centres undefined), the TGI was above 100 µM in assay [1]; above 100 µM in assay [2]; above 74 µM in assay [3]; above 31.9 µM in assay [4]; above 54.8 µM in assay [5]; 53.2 µM in assay [6]. Besides, the concentration for total growth inhibition (TGI) was above 95.3 µM in assay [7] and 27.8 µM in assay [8].

Take `C/C(=N\NC(=O)/C(C#N)=C\c1ccc(N(CCC#N)CCC#N)cc1)c1ccccc1`: the TGI in assay [1], in assay [2], in assay [4], in assay [5], in assay [6] and in assay [7] was above 10 µM throughout. This molecule yielded a TGI in assay [8] above 10 µM.

With `CCOC(=O)c1c2c(c(O)c3ccccc3c(O)n(-c3ccc(C)cc3)c1C)C(=O)C=CC2=O`, the TGI in assay [1] amounted to 51.5 µM; in assay [2] it was 38.4 µM; in assay [3] it was 35.2 µM; in assay [4] it was 43.3 µM; in assay [6] it was 34.7 µM; in assay [7] it was 55.7 µM. This molecule also yielded a TGI in assay [8] of 71.7 µM.

`C#CCCOC1(OC)N=NC(C)(C)O1` (centres undefined): the TGI in assay [1], in assay [2], in assay [3], in assay [5], in assay [6] and in assay [8] was above 100 µM throughout.

As for `O=C1/C(=C/c2ccc(Cl)cc2)NC(=S)N1CN1CCOCC1`, the TGI in assay [1], in assay [2], in assay [3], in assay [5], in assay [6] and in assay [7] was above 100 µM in each case. Also, the TGI in assay [8] is above 100 µM.

On to `CC1(C)[C@@H]2C[C@H]1C(Cc1ccc(C[C@H]3c4cc(-c5ccccn5)ncc4[C@H]4C[C@@H]3C4(C)C)cc1)c1cc(-c3ccccn3)ncc12` (some centres undefined), for which the TGI in assay [1] is above 100 µM; in assay [2] it was above 100 µM; in assay [3], 18.8 µM; in assay [4] it was above 100 µM; in assay [6] it was above 100 µM; in assay [7], above 100 µM. In assay [8], this molecule gave a total growth inhibition concentration (TGI) of 5.68 µM.

For the molecule `CO/C(=N\N=C\c1ccc(OC)cc1OC)c1ccncc1`, the TGI in assay [1], in assay [2], in assay [6] and in assay [7] was above 10 µM throughout.

Take `O=[N+]([O-])/C(Cl)=C(\Nc1ccccc1)C(Cl)=C(Cl)Cl`: the TGI was above 100 µM in assay [2]; 40.7 µM in assay [3]; above 100 µM in assay [4]; above 100 µM in assay [5]; 66.6 µM in assay [6]; 60.4 µM in assay [7]. The concentration for total growth inhibition (TGI) in assay [8] is 94.5 µM.

In the case of `Cc1cc(S(=O)(=O)Nc2nc(N)nc(N3CCOCC3)n2)c(SCC(=O)O)cc1Cl`, the total growth inhibition concentration (TGI) in assay [1], in assay [2], in assay [3], in assay [4], in assay [5] and in assay [6] was above 10 µM each time. For the same molecule, the TGI in assay [7] was above 10 µM.

Take `CCCC(=O)N/S(=N/S(=O)(=O)c1ccc(Cl)cc1)C(Cl)(Cl)Cl` (centres undefined): the TGI in assay [1], in assay [2], in assay [3], in assay [5], in assay [6] and in assay [7] was above 100 µM in each case. In assay [8], this molecule came in with a TGI above 100 µM.

Take `CCOC(=O)c1nnsc1NC(=O)Nc1ccc(Cl)cc1`: the total growth inhibition concentration (TGI) in assay [1], in assay [2], in assay [3], in assay [5], in assay [6] and in assay [8] was above 100 µM each time.

Regarding `Cc1cn(CC2=NCC(C)(C)CN2)c(=O)[nH]c1=O`, the concentration for total growth inhibition (TGI) in assay [1], in assay [2], in assay [5], in assay [6], in assay [7] and in assay [8] was above 100 µM throughout.

With `C[C@@H]1CC[C@H]2C(COC/C=C/COCC3=C(C(F)(F)F)O[C@@H]4O[C@@]5(C)CC[C@H]6[C@H](C)CC[C@@H]3[C@@]46OO5)=C(C(F)(F)F)O[C@@H]3O[C@@]4(C)CC[C@@H]1[C@]32OO4`, the 50% growth inhibitory concentration (GI50) is 0.0101 µM in assay [1]; 0.0468 µM in assay [2]; below 0.0114 µM in assay [3]; 0.158 µM in assay [4]; 0.038 µM in assay [6]; 0.028 µM in assay [7]. The GI50 in assay [8] is 0.0781 µM. In addition, the TGI was above 100 µM in assay [1]; 0.753 µM in assay [2]; 0.336 µM in assay [3]; 14.2 µM in assay [6]; above 58.3 µM in assay [7]; above 100 µM in assay [8].

For the molecule `CC(=N/NC(=S)Nc1c(C)n(C)n(-c2ccccc2)c1=O)/C(C)=N\NC(=S)Nc1c(C)n(C)n(-c2ccccc2)c1=O`, the TGI in assay [1], in assay [2], in assay [3], in assay [4], in assay [6] and in assay [8] was above 100 µM throughout.
